Data reported in article PMC2755957 (The Journal of Biological Chemistry, 2009).
Changes are numbered by the printed parent chain.

Tests used:
[1] = target: T1, mouse Δ1–24-L-PGDS (lipocalin type prostaglandin D synthase) (Mus musculus, UniProt O09114, H116A); assay: biochemical
T1 sequence (O09114 25-189 H116A): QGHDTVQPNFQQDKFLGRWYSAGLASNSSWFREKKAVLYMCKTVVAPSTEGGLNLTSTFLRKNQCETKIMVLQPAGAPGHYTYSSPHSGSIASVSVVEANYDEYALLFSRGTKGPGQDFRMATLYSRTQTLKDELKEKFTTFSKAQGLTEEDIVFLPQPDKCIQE

[2] = target: T2, Δ^1–24-C65A + P110A (Mus musculus, UniProt O09114, C65A/P110A); assay: biochemical
T2 sequence (O09114 1-189 C65A/P110A): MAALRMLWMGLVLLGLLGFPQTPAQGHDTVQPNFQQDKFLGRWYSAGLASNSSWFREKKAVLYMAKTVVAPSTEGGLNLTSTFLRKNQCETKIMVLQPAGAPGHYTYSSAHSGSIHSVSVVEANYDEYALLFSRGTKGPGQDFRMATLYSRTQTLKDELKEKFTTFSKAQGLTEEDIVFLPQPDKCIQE

[3] = target: T3, mouse Δ1–24-L-PGDS (lipocalin type prostaglandin D synthase) (Mus musculus, UniProt O09114, W54A); assay: surface plasmon resonance; format: binding
T3 sequence (O09114 25-189 W54A): T1 sequence (O09114 25-189 H116A) with W30A, A92H

[4] = target: T4, Δ^1–24-L-PGDS + P110A (Mus musculus, UniProt O09114, P110A); assay: biochemical
T4 sequence (O09114 1-189 P110A): T2 sequence (O09114 1-189 C65A/P110A) with A65C

[5] = target: T5, mouse Δ1–24-L-PGDS (lipocalin type prostaglandin D synthase) (Mus musculus, UniProt O09114); assay: PGDS assay, [[…]-14C]PGH2 to [[…]-14C]PGD2 by TLC; format: biochemical
T5 sequence (O09114 25-189): T1 sequence (O09114 25-189 H116A) with A92H

[6] = target: T5, mouse Δ1–24-L-PGDS (lipocalin type prostaglandin D synthase); assay: surface plasmon resonance; format: binding
[7] = target: T1, mouse Δ1–24-L-PGDS (lipocalin type prostaglandin D synthase); assay: surface plasmon resonance; format: binding
[8] = target: T6, Δ^1–24-L-PGDS + S45A/S81A (Mus musculus, UniProt O09114, S45A/S81A); assay: biochemical
T6 sequence (O09114 1-189 S45A/S81A): T2 sequence (O09114 1-189 C65A/P110A) with S45A, A65C, S81A, A110P

Row | Kd [1] | Kd [2] | Kd [3] | Kd [4] | Ki [5] | Kd [6] | Kd [7] | Kd [8] | Compound
1 | 27.3 ± 2.5 µM | 22.4 ± 1.4 µM | 20.3 ± 1.9 µM | 13.5 ± 3.1 µM | 30 µM | 17.5 ± 1.2 µM | – | – | CCCCC[C@H](O)/C=C/[C@H]1[C@@H]2CO[C@@H](C2)[C@@H]1C/C=C\CCCC(=O)O [U-44069]
2 | – | – | 44 ± 3.9 µM | – | 36 µM | 22.8 ± 1.6 µM | 48.5 ± 4.4 µM | 19.1 ± 2.6 µM | CCCCC[C@H](O)/C=C/[C@@H]1[C@@H](C/C=C\CCCC(=O)O)[C@H]2CO[C@@H]1C2 [U-46619]
